Data reported in patent publication US20230263798A1, “COMPOSITIONS AND METHODS FOR TREATING THERAPY RESISTANT CANCER” (The General Hospital Corporation, priority 2020, published 2023).
Entries after “also recorded” stand apart in the source; their conditions may differ.

Experiments:
Type in all cases: cell-based
[1] = tested on: CD14+ monocytes, CD8+ T cells, and NK (NK92) cells; assay: Co-culture of treated cancer cells with immune cells; settings: untreated or doxorubicin or gemcitabine treated cells plus agent
Source text: APOBEC3B would lead to neoepitopes that could trigger the immune system. However, this is not readily seen as inhibitors of immune cells such as TGF-β that inhibits NK cells are increased in doxorubicin treated breast cancer cells. […] M6A also downregulates antiviral innate immune response while promoting ADAR1 that suppresses antiviral immunity. Therefore, inhibition of METTL3 would activate them.

[2] = tested on: MCF7 cells; assay: Doxorubicin chemosurvival of MCF7 cells; settings: for doxorubicin chemosurvival with co-treatment: 500 nM Doxorubicin treated MCF7 cells co-treated with agent (5 uM Trazodone, 5 uM ISRIB, 6uM Enzastaurin) vs DMSO buffer
Procedure: This was tested in METTL3 overexpression cells compared to CD-M3 cells compared to control Actin mRNA by qPCR. […] 500 nM Doxorubicin treated MCF7 cells were co-treated with (i) 5 uM of Trazodone, (ii) 5 uM of ISRIB, or DMSO buffer. […] Data are average of 3 replicates +/-SEM. Actin and Tubulin are loading controls for Western blots. See also FIG. 8A-8l.
(§1) FIGS. 8C and 8D show Western blot analysis of PARP1, phospho-elF2α, METTL3 with doxorubicin or Sal003 treatment. […] 500 nM Doxorubicin treated MCF7 cells were co-treated with 6uM of Enzastaurin or DMSO buffer. […] Data are average of 3 replicates +/-SEM.

[3] = tested on: phospho-elF2α; assay: Western blot of elF2α phosphorylation in MCF7 cells; settings: for elF2α phosphorylation: MCF7 cells, agent alone, Western blot; for elF2α phosphorylation in doxorubicin treated cells with agent: addition to doxorubicin treated cells (FIG. 8F)
Procedure: as §1

[4] = tested on: METTL3; assay: Western blot analysis of METTL3 in MCF7 cells; settings: for METTL3 level in doxorubicin treated cells co-treated with agent: doxorubicin treated cells plus agent vs buffer treated
Source text: The Western blot includes samples with control shRNA or shMETTL3. […] Tubulin and Histone serve as Western blot loading controls. Data are average of 3 replicates +/-SEM. See also FIGS. 2A-2G.
(§2) Data are average of 3 replicates +/-SEM. Tubulin serves as the loading control.
(§3) Tubulin and Histone serve as Western blot loading controls. Data are average of 3 replicates +/-SEM. See also FIGS. 4A-4H.
(§4) Actin and Tubulin are loading controls for Western blots. Data are average of 3 replicates +/-SEM.
as §1
(§5) To determine the mechanisms of specific mRNA expression in chemosurviving cancer cells, we examined RNA binding regulators in chemosurviving MCF7 breast cancer cells, isolated after doxorubicin chemotherapy treatment.

[5] = tested on: METTL3; assay: Western blot of METTL3 in THP1 cells; settings: 1 µM Cytarabine over time
[6] = tested on: phospho-elF2α; assay: Western blot of elF2α phosphorylation in THP1 cells; settings: 1 µM Cytarabine over time
[7] = tested on: METTL3; assay: Western blot of METTL3 in BT549 cells; settings: over time of treatment
[8] = tested on: phospho-elF2α; assay: Western blot of elF2α phosphorylation in BT549 cells; settings: over time of treatment
Procedure: as §2
as §5, with “treatment. […] The increase observed is transient and is not observed at 48 h of treatment (FIG. 2A).” for “treatment.”

[9] = tested on: Hexim1; assay: Western blot of Hexim1; settings: treated cells
Source text: (§6) Western blot is shown of other RNA binding proteins that increase in mass spectrometry data. […] FIGS. 6J and 6K show Hexim, PPM1G and HuR increase in chemotreated patient samples and on doxorubicin treatment.
Other RNA binding proteins such as HEXIM1 and PPM1G that increase in doxorubicin surviving cells also associate with METTL3 mRNA and with HuR. The indirect associated protein, Hexim1 is a transcription regulator but also associates with other complexes and RNAs and promotes mRNA stability under nucleotide stress. […] The phosphatase PPM1G is known to associate with Hexim1 and is activated by DNA damage/ATM signaling upon chemotherapy treatment, and upon PI3K/Akt inhibition, consistent with these conditions where METTL3 increases. On Akt inhibition, PPM1G dephosphorylates 4EBP; this inhibits canonical translation, consistent with specific mRNA translation elicited in these conditions.
Therefore, we tested whether Hexim1 was required for METTL3 levels.

[10] = tested on: METTL14; assay: Western blot analysis of METTL14 in MCF7 cells; settings: for METTL14 level in doxorubicin treated cells co-treated with agent: doxorubicin treated cells plus agent (FIGS. 3D and 3E)
Source text: as §3, §4, §6
(§7) If METTL3 is increased by Sal003, then m6A on RNA should increase in such conditions.

[11] = tested on: ATF4; assay: Western analysis of ATF4 (ISR response gene); settings: for ATF4 level in doxorubicin treated cells co-treated with agent: doxorubicin treated cells plus agent vs buffer treated
Source text: as §7

[12] = tested on: m6A on RNA; assay: m6A on ribosomal RNA depleted RNA (dot blot, 2D-TLC)
Procedure: The Western blot includes samples with control shRNA or shMETTL3. […] Tubulin and Histone serve as Western blot loading controls. Data are average of 3 replicates +/-SEM. See also FIGS. 2A-2G. […]
To test whether the increased m6A modification enzymes lead to increased m6A modification on RNA, ribosomal RNA depleted RNA from doxorubicin treated cells compared to untreated cells by dot blot analyses was tested. […] Consistent with decreased METTL3 upon knockdown, the dot blot signal is depleted when METTL3 is knocked down (FIG. 1B). Second, RNA from doxorubicin treated cells for m6A by two-dimensional-thin layer chromatography separation (2D-TLC) was performed (H. Grosjean, G. Keith, L. Droogmans, Detection and quantification of modified nucleotides in RNA using thin-layer chromatography. Methods in molecular biology (Clifton, N.J.) 265, 357-391 (2004)).

[13] = tested on: METTL3 mRNA; assay: METTL3 mRNA level and translation (qPCR, polysome fractionation, nascent amino acid labeling); settings: treated vs buffer treated cells, polysome fractionation and qPCR
Procedure: as §3, §4
To verify that the increase in METTL3 was at the translation level, polysome analysis was conducted first. […] We next verified increased polysome association of METTL3 mRNA with Y10B antibody immunoprecipitation in doxorubicin treated and in Sal003 cells compared to buffer treated cells (FIGS. 3I and 4F).

[14] = tested on: PARP1; assay: Western blot analysis of PARP1; settings: treated cells
Procedure: as §1
Consistently, doxorubicin treated cells are sensitive to PARP inhibitors, such as Talazoparib (BMN-673, FIG. 8B).

[15] = MCF7 cells, agent alone vs untreated/buffer, Western blot
[16] = ribosomal RNA depleted RNA from treated vs untreated MCF7 cells, dot blot or 2D-TLC

For Nc1ncnc2c1nnn2[C@@H]1O[C@H](CO)[C@@H](O)[C@H]1O [8-azaadenosine], the “survival of treated cancer cells co-cultured with immune cells” value (“survival … with immune cells” for short) [1] was “sensitive to anti-tumor immunity” and the “doxorubicin chemosurvival with co-treatment” value [2] was “reduced doxorubicin survival”.
Cn1c(=O)n(-c2ccc(C(C)(C)C#N)cc2)c2c3cc(-c4cnc5ccccc5c4)ccc3ncc21 [BEZ 235] was tested, and the elF2α phosphorylation [3] was “elF2α phosphorylation” and the METTL3 level [4, 15] was “Increase”.
Nc1ccn([C@@H]2O[C@H](CO)[C@@H](O)[C@@H]2O)c(=O)n1 [Cytarabine] was tested, and the METTL3 level [5] was “transient increase” and the elF2α phosphorylation [6] was “transient increase”.
In the case of Cn1cc(C2=C(c3cn(C4CCN(Cc5ccccn5)CC4)c4ccccc34)C(=O)NC2=O)c2ccccc21 [Enzastaurin], the “METTL3 level in doxorubicin treated cells co-treated with agent” value (shortened to “METTL3 level … with agent”) ([4]; Western blot) is reported as “reduced” and the “doxorubicin chemosurvival with co-treatment” value [2] is reported as “reduced”.
For Nc1ccn([C@@H]2O[C@H](CO)[C@@H](O)C2(F)F)c(=O)n1 [Gemcitabine], the METTL3 level [7] was “increase over time”, the elF2α phosphorylation [3] was “increase over time” and the METTL3 level [4, 15] was “increase over time”. The elF2α phosphorylation [8] was “increase over time”.
CC(=O)NCCCCCCNC(C)=O [HMBA] was tested, and the Hexim1 level [9] was “increased”, the elF2α phosphorylation [3] was “elF2α phosphorylation” and the METTL3 level [4, 15] was “increased”. The METTL14 level [10, 15] was “increases”.
With O=C(COc1ccc(Cl)cc1)NC1CCC(NC(=O)COc2ccc(Cl)cc2)CC1 (centres unmarked) [ISRIB] the “survival … with immune cells” value [1] was “loss of survival”, the “METTL3 level … with agent” value ([4]; Western blot) was “do not show increase” and the “doxorubicin chemosurvival with co-treatment” value [2] was “significant decrease”. The “ATF4 level in doxorubicin treated cells co-treated with agent” value [11] was “do not show increase” and the “METTL14 level in doxorubicin treated cells co-treated with agent” value [10] was “prevent”.
In the case of CC(C)(C)Cn1c(N)nc2ccc(-c3[nH]c(C(C)(C)C)nc3-c3ccc(F)cc3)nc21 [LY2228820], the “METTL3 level … with agent” value ([4]; Western blot) is reported as “reduces METTL3 increase”.
O=[N+]([O-])c1ccc(Nc2nc(N3CCOCC3)nc(N3CCOCC3)n2)cc1 [MHY1485] was tested, and the METTL3 level [4, 15] was “decreased”.
For COc1ccc(COc2cc3oc(=O)c4cc(C(C)O)ccc4c3cc2OC)cc1 (centres unmarked) [Palomid 529], the METTL3 level [4, 15] was “Increase”.
With C[S+]([O-])c1ccc(-c2nc(-c3ccncc3)c(-c3ccc(F)cc3)[nH]2)cc1 (centres unmarked) [SB203580] the “METTL3 level … with agent” value ([4]; Western blot) was “reduces METTL3 increase”.
In the case of O=C(/C=C/c1ccccc1)NC(NC(=S)Nc1ccc(Cl)cc1)C(Cl)(Cl)Cl (centres unmarked) [Sal003], the elF2α phosphorylation [3] is reported as “prevented dephosphorylation”, the “m6A on RNA” value [12, 16] is reported as “increased” and the METTL3 level [4, 15] is reported as “increased”. For the same compound, the “METTL3 mRNA on polysomes compared to monosomes” value [13] was “increased”, the “non-canonical translation of ATF4” value ([11]; MCF7 cells, agent alone) was “induced” and the METTL14 level [10, 15] was “increased”. The PARP1 level [14] was “increases”.
With Cn1ncnc1[C@H]1c2n[nH]c(=O)c3cc(F)cc(c23)N[C@@H]1c1ccc(F)cc1 [Talazoparib] the “doxorubicin chemosurvival with co-treatment” value [2] was “sensitive”.
For CC(=O)O[C@H]1C(=O)[C@@]2(C)[C@H]([C@H](OC(=O)c3ccccc3)[C@]3(O)C[C@H](OC(=O)[C@H](O)[C@@H](NC(=O)c4ccccc4)c4ccccc4)C(C)=C1C3(C)C)[C@]1(OC(C)=O)CO[C@@H]1C[C@@H]2O [Taxol], the METTL3 level [7] was “increase over time” and the elF2α phosphorylation [8] was “increase over time”.
CCC(=O)N1CCN(c2ccc(-n3c(=O)ccc4cnc5ccc(-c6cnc7ccccc7c6)cc5c43)cc2C(F)(F)F)CC1 [Torin1] was tested, and the elF2α phosphorylation [3] was “elF2α phosphorylation”, the “m6A on RNA” value ([12]; MCF7 3D tumor spheres, dot blot) was “increased” and the METTL3 level ([4]; MCF7 3D tumor spheres) was “increase”. For the same compound, the METTL3 level [4, 15] was “increased” and the METTL14 level ([10]; MCF7 3D tumor spheres) was “increase”.
For CN(C)C(=N)N=C(N)N [metformin], the “survival … with immune cells” value [1] was “loss of survival”, the “elF2α phosphorylation in doxorubicin treated cells with agent” value [3] was “reduction” and the “METTL3 level … with agent” value ([4]; Western blot) was “decreased induction”. The “doxorubicin chemosurvival with co-treatment” value [2] was “decreased chemosurvival”.
In the case of [H]/N=C(/N)N/C(=N/[H])NCCc1ccccc1 [phenformin], the “survival … with immune cells” value [1] is reported as “loss of survival”, the “elF2α phosphorylation in doxorubicin treated cells with agent” value [3] is reported as “reduction” and the “METTL3 level … with agent” value ([4]; Western blot) is reported as “decreased induction”. The “doxorubicin chemosurvival with co-treatment” value [2] was “decreased chemosurvival; also recorded: reduced doxorubicin survival”.
C/C=C(/C)C(=O)O[C@H]1C(C)=C2[C@H]([C@@H]1OC(=O)CCCCCCC)[C@@](C)(OC(C)=O)C[C@H](OC(=O)CCC)[C@@]1(O)[C@H]2OC(=O)[C@@]1(C)O [thapsigargin] was tested, and the elF2α phosphorylation [3] was “induces”, the METTL3 level [4, 15] was “increase” and the METTL14 level [10, 15] was “increase”.
O=c1n(CCCN2CCN(c3cccc(Cl)c3)CC2)nc2ccccn12 [trazodone] was tested, and the “survival … with immune cells” value [1] was “loss of survival”, the “METTL3 level … with agent” value ([4]; Western blot) was “do not show increase” and the “doxorubicin chemosurvival with co-treatment” value [2] was “significant decrease”. For the same compound, the “doxorubicin chemosurvival of shMETTL3 cells with agent” value ([2]; METTL3 depleted (shMETTL3) cells, doxorubicin plus Trazodone vs buffer (FIG. 8A)) was “Synergistic decrease in chemosurvival was not observed”, the “ATF4 level in doxorubicin treated cells co-treated with agent” value [11] was “do not show increase” and the “METTL14 level in doxorubicin treated cells co-treated with agent” value [10] was “prevent”.
With poly I:C the Hexim1 level [9] was “increases”, the elF2α phosphorylation [3] was “induces” and the “m6A on RNA” value [12, 16] was “increased”. The METTL3 level [4, 15] was “increase” and the METTL14 level [10, 15] was “increase”.
